According to paper PMC9077138, “An investigation on 3-acetyl-7-methoxy-coumarin Schiff bases and their Ru(II) metallates with potent antiproliferative activity and enhanced LDH and NO release” (RSC Advances, 2018):
Like-named read-outs stand apart in the source and are kept apart here.

Tests used:
BSA = target: T1, BSA (Bos taurus, UniProt P02769); assay: BSA tryptophan fluorescence quenching; format: binding, bovine
T1 construct: purchased HiMedia (Mumbai, India)
From the text: (§1) The obtained results confirmed the interaction of the ligands and complexes with serum albumins. The absorption spectra of the serum albumins in the absence and presence of ligands H2L^1–4 and the complexes 1–4 are given in Fig. S29 in the ESI. ^† On adding ligands and complexes 1–4 to albumins, the absorbance intensity of serum albumins was decreased with a red shift of 2 nm. The observed changes indicated a static quenching mechanism of serum albumins by the ligands and complexes (1–4). To obtain a quantitative insight into the quenching progression, the Stern–Volmer quenching constant (KSV) and the quenching constant (Kq) were calculated from the Stern–Volmer equation using the Io/ICorrversus [Q] plot (Table 4).[53] The observed linearity in the plots (Fig. 13) indicated the ability of the compounds to quench the emission intensity of serum albumins and the order of quenching constant of the compounds is complex 3 > complex 2 > complex 1 > complex 4 > H2L^3 > H2L^2 > H2L^1 > H2L^4.
(§2) Furthermore, the equilibrium binding constant and number of binding sites were evaluated by using the Scatchard equation. The Kbin values were derived from the graph between log[(Fo − F)/F] and log[Q] From the results, we confirmed that the Ru(II) complexes having a large hydrophobic area can interact more efficiently than the ligands with serum albumins via a static pathway. The higher binding affinity of the complexes over the ligands may be due to the efficient binding of protein moiety with the complexed metal ions. Here, the binding affinities of the complexes with serum albumins followed the same order as those with DNA binding studies, complex 3 > complex 2 > complex 1 > complex 4 > H2L^3 > H2L^2 > H2L^1 > H2L^4. Variation in the binding affinity of the compounds with serum albumins depends on the electron-donating ability of the ligand, i.e. the substitution on the N-terminal nitrogen atom. The binding capability of the compounds to serum albumins increased with the increase in electron-donating ability of the substituent on the terminal nitrogen of the coordinated thiosemicarbazone ligand. The obtained quenching constant and binding constant values of these new cyclometallated ruthenium(II) complexes agree well with those reported for other ruthenium(II) complexes.[31,44,54–56] […]
(§3) Serum albumin binding study
(§4) Bovine Serum Albumin (BSA) and human serum albumin were purchased from Hi Media, The protein binding study was performed by tryptophan fluorescence quenching experiments using bovine serum albumin (BSA, 10 µM) or human serum albumin (HSA, 10 µM) as the substrate in phosphate buffer (pH= 7.2). Quenching of the emission intensity of tryptophan residues of BSA at 346 nm (excitation wavelength at 280 nm)/ HSA at 345 nm (excitation wavelength at 290 nm) was monitored using ligands and complexes as quenchers with increasing concentration (10-100µM). Synchronous fluorescence spectra of BSA or HSA with various concentrations of the complexes were obtained from 300 to 400 nm when ∆λ = 60 nm and from 290 to 500 nm when ∆λ = 15 nm. For synchronous fluorescence spectra, the same concentrations of serum albumins and the compounds were also used and the spectra were measured at two different Δλ values (difference between the excitation and emission wavelengths of BSA), such as 15 and 60 nm. Fluorescence and synchronous measurements were performed using a 1 cm quartz cell on a JASCO FP 6600 spectrofluorimeter.
(§5) The quenching data can be analyzed according to the Stern-Volmer equation, […]
(§6) Io/Icorr =K SV[Q]+1 Eq (S2) where Iₒ is the emission intensity in the absence of compound, Icorr is the corrected emission intensity in the presence of compound, KSV is the quenching constant and [Q] is the concentration of the compound.
(§7) In order to correct the inner filter effect, the following equation used Icorr = Iobs*10 (Aexc+Aem)/2 where Icorr is the corrected fluorescence value, Iobs the measured fluorescence value, Aexc is […]

HSA = target: T2, HSA (Homo sapiens, UniProt P02768); assay: HSA tryptophan fluorescence quenching; format: binding; settings: for Kd: read-out: Binding constant Kbin (converted)
T2 construct: purchased HiMedia (Mumbai, India)
T2 sequence (P02768 25-609): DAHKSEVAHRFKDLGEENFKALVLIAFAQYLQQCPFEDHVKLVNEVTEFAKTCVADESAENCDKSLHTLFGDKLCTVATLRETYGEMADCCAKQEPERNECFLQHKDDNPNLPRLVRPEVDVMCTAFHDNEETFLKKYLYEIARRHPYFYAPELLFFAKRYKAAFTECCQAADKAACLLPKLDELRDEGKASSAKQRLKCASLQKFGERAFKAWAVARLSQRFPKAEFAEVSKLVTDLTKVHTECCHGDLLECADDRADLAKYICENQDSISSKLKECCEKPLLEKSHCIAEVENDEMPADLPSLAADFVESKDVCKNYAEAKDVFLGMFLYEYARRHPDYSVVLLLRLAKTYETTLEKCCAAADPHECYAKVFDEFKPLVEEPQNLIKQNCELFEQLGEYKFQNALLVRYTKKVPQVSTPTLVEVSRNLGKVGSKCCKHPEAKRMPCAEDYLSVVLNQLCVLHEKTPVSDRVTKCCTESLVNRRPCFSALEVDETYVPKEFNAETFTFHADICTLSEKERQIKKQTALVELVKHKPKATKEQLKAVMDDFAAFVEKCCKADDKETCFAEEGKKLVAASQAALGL
From the text: as §1, §2, §3, §4, §5, §6, §7

S. aureus = assay: In vitro antibacterial assay (zone of inhibition, MIC); format: cell-based, Staphylococcus aureus; settings: for zone of inhibition at 50 µg/mL / zone of inhibition at 100 µg/mL: Staphylococcus aureus
Method: (§8) The free ligands and their cyclometallated ruthenium(II) carbonyl complexes were screened for their in vitro antimicrobial activity against certain pathogenic bacterial and fungal species at three different concentrations using disc diffusion method.
(§9) Antimicrobial activities of [RuHClCO(PPh3)3], ligands H2L^1–4 and new organometallic Ru(II) complexes (1–4) were evaluated by agar well diffusion method[76] as reported, by taking Staphylococcus aureus, Streptococcus pneumonie, Pseudomonas aeruginosa, Salmonella paratyphi and fungus such as Candida albicans, Trichophyton rubrum, Aspergillus niger, Aspergillus fumigatus and Candida tropicalis. The above said all test organisms were obtained from the MTCC, Chandigarh, India and Microbiological laboratory, Coimbatore, Tamil Nadu, India. The antimicrobial activity of the test compounds was checked with various concentrations (25 μg ml^−1, 50 μg ml^−1 and 100 μg ml^−1) against all the test pathogens. Gentamicin and ketoconazole were used as positive controls to study the antibacterial and antifungal activities respectively. Each experiment was performed in triplicate and the results are represented as average zone of inhibition and minimum inhibitory concentration of all the test pathogens.

Aspergillus fumigatus = assay: In vitro antifungal assay (zone of inhibition, MIC); format: cell-based
Method: as §8, §9

Aspergillus niger = assay: as above; format: cell-based
Method: as §8, §9

Candida tropicalis = assay: as above; format: cell-based
Method: as §8, §9

Trichophyton rubrum = assay: as above; format: cell-based
Method: as §8, §9

[1] = tested on: human breast cancer cell line MCF-7; assay: MTT cytotoxicity assay; format: cell-based; settings: read-out: IC50 values MCF-7
From the text: (§10) The DNA/protein binding studies, antioxidant and antimicrobial studies had shown that the ligands and ruthenium(II) complexes studied here have therapeutic potentials and were subjected to study their anticancer activity. A number of coumarin derivatives have shown considerable anticancer activity against a number of cell lines. All the 3-acetyl-7-methoxy-coumarin-4(N)-substituted thiosemicarbazone ligands, metal precursor [RuHClCO(PPh3)3] and their new cyclometallated Ru(II) complexes were assessed for their cytotoxicity with two human derived cell lines namely human lung carcinoma (A549) and human breast cancer cells (MCF-7) by using MTT assay. For comparison purpose, cisplatin was used as a positive control under identical conditions.
(§11) Cytotoxic activity of the compounds was tested with human lung cancer cell lines A549, human breast cancer cell lines MCF-7 and human normal keratinocyte cells (HaCaT) by using MTT assay, which was done according to the earlier literature methods[77] and IC50 values obtained from nonlinear regression using GraphPad Prism 5.[78] The LDH release[79] and NO release[80] assays of the compounds was evaluated by the earlier reported methods.

[2] = tested on: human lung carcinoma cancer cell line A549; assay: MTT cytotoxicity assay; format: cell-based; settings: read-out: IC50 values A549
From the text: as §10, §11

T1 sequence (P02769 25-607): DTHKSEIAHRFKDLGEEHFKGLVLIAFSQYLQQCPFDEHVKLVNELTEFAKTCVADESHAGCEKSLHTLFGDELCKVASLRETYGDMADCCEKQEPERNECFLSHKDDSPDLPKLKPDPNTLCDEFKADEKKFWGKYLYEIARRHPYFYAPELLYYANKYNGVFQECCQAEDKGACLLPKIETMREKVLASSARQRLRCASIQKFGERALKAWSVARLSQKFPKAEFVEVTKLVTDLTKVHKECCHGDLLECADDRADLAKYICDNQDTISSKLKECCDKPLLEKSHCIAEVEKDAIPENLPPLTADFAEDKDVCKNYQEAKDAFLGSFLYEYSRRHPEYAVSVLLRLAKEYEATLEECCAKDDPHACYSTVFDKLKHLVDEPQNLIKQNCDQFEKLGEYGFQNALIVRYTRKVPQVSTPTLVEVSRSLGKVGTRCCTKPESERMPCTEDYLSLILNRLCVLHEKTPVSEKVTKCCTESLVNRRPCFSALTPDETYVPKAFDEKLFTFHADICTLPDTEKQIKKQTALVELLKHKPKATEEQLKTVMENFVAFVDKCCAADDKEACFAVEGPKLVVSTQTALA

COc1ccc2[c]3c(c(=O)oc2c1)C(C)=[N+]1N=C(Nc2ccccc2)[S][Ru-4]31([C]#[O+])([P+](c1ccccc1)(c1ccccc1)c1ccccc1)[P+](c1ccccc1)(c1ccccc1)c1ccccc1 [Complex 4, [Ru(7MAC-ptsc)(CO)(PPh3)2]]
Quenching constant kq (BSA; BSA): 1.454 ± 0.030 × 10^12 M^−1 s^−1
Stern–Volmer KSV (BSA; BSA): 1.454 ± 0.030 × 10^4 M^−1
number of binding sites n (BSA; BSA): 1.0486 ± 0.019
Binding constant Kbin (BSA; BSA, Scatchard equation): 2.178 ± 0.019 × 10^4 M^−1
quenching of BSA fluorescence intensity at 346 nm (BSA; compounds 10–100 μM, BSA 10 μM): 58.68%
Quenching constant kq (HSA; HSA): 0.675 ± 0.008 × 10^12 M^−1 s^−1
Stern–Volmer KSV (HSA; HSA): 0.675 ± 0.008 × 10^4 M^−1
number of binding sites n (HSA; HSA): 0.9118 ± 0.025
Binding constant Kbin (HSA; HSA, Scatchard equation): 0.297 ± 0.024 × 10^4 M^−1
decrease of HSA fluorescence intensity (HSA; compounds 10–100 μM, HSA 10 μM): 39.80%
Minimum inhibitory concentration (MIC); head: IC50 VALUES (S. aureus; S. aureus): 18.25 ± 0.11 µM
Zone of inhibition (S. aureus; S. aureus, 50 µg/ml): 12.21±0.42 mm
Zone of inhibition (S. aureus; S. aureus, 100 µg/ml): 18.11±0.11 mm
Minimum inhibitory concentration (MIC); head: IC50 VALUES (Aspergillus fumigatus): 14.45 ± 0.13 µM
Zone of inhibition (Aspergillus fumigatus; 50 µg/ml): 12.36±0.52 mm
Zone of inhibition (Aspergillus fumigatus; 100 µg/ml): 18.15±0.45 mm
Minimum inhibitory concentration (MIC); head: IC50 VALUES (Aspergillus niger): 14.80 ± 0.25 µM
Zone of inhibition (Aspergillus niger; 50 µg/ml): 11.55±0.26 mm
Zone of inhibition (Aspergillus niger; 100 µg/ml): 17.66±0.13 mm
Minimum inhibitory concentration (MIC); head: IC50 VALUES (Candida tropicalis): 13.54 ± 0.21 µM
Zone of inhibition (Candida tropicalis; 50 µg/ml): 12.43±0.12 mm
Zone of inhibition (Candida tropicalis; 100 µg/ml): 17.13±0.57 mm
Minimum inhibitory concentration (MIC); head: IC50 VALUES (Trichophyton rubrum): 15.52 ± 0.27 µM
Zone of inhibition (Trichophyton rubrum; 50 µg/ml): 12.41±0.56 mm
Zone of inhibition (Trichophyton rubrum; 100 µg/ml): 18.42±0.18 mm
IC50 ([1]; MTT, 48 h): 3.02 ± 0.05 µM
IC50 ([2]; MTT, 48 h): 3.05 ± 0.12 µM

COc1ccc2cc(C(C)=NNC(N)=S)c(=O)oc2c1 [H2L^1, ((1E)-1-(1-(7-methoxy-2-oxo-2H-chromen-3-yl)ethylidene)thiosemicarbazone)]
Kd (BSA): 507 µM
Kd (HSA; HSA, Scatchard equation): 477 µM
zone of inhibition at 50 µg/mL (S. aureus): 13 ± 0.23 mm
zone of inhibition at 100 µg/mL (S. aureus): 17.19 ± 0.16 mm
zone of inhibition at 50 µg/mL (Aspergillus fumigatus): 11.2 ± 0.73 mm
zone of inhibition at 100 µg/mL (Aspergillus fumigatus): 17.4 ± 0.22 mm
zone of inhibition at 50 µg/mL (Aspergillus niger): 13.1 ± 0.33 mm
zone of inhibition at 100 µg/mL (Aspergillus niger): 17.41 ± 0.14 mm
zone of inhibition at 50 µg/mL (Candida tropicalis): 11.93 ± 0.01 mm
zone of inhibition at 100 µg/mL (Candida tropicalis): 17.4 ± 0.51 mm
zone of inhibition at 50 µg/mL (Trichophyton rubrum): 13.2 ± 0.16 mm
zone of inhibition at 100 µg/mL (Trichophyton rubrum): 17.3 ± 0.51 mm
IC50 ([1]; Homo sapiens, MCF7, 48 h): 13.1 ± 0.29 µM
IC50 ([2]; Homo sapiens, A549, 48 h): 12.6 ± 0.17 µM

CNC(=S)NN=C(C)c1cc2ccc(OC)cc2oc1=O [H2L^2, ((1E)-1-(1-(7-methoxy-2-oxo-2H-chromen-3-yl)ethylidene) 4(N)-methylthiosemicarbazone)]
Kd (BSA): 333 µM
Kd (HSA; HSA, Scatchard equation): 392 µM
zone of inhibition at 50 µg/mL (S. aureus): 12.1 ± 0.25 mm
zone of inhibition at 100 µg/mL (S. aureus): 17.5 ± 0.28 mm
zone of inhibition at 50 µg/mL (Aspergillus fumigatus): 11.8 ± 0.41 mm
zone of inhibition at 100 µg/mL (Aspergillus fumigatus): 18.3 ± 0.22 mm
zone of inhibition at 50 µg/mL (Aspergillus niger): 12.4 ± 0.33 mm
zone of inhibition at 100 µg/mL (Aspergillus niger): 16.6 ± 0.21 mm
zone of inhibition at 50 µg/mL (Candida tropicalis): 11.5 ± 0.75 mm
zone of inhibition at 100 µg/mL (Candida tropicalis): 17.1 ± 0.46 mm
zone of inhibition at 50 µg/mL (Trichophyton rubrum): 11.3 ± 0.17 mm
zone of inhibition at 100 µg/mL (Trichophyton rubrum): 17.4 ± 0.51 mm
IC50 ([1]; Homo sapiens, MCF7, 48 h): 12.1 ± 0.32 µM
IC50 ([2]; Homo sapiens, A549, 48 h): 12.1 ± 0.16 µM

CCNC(=S)NN=C(C)c1cc2ccc(OC)cc2oc1=O [H2L^3, ((1E)-1-(1-(7-methoxy-2-oxo-2H-chromen-3-yl)ethylidene) 4(N)-ethylthiosemicarbazone)]
Kd (BSA): 70.9 µM
Kd (HSA; HSA, Scatchard equation): 382 µM
zone of inhibition at 50 µg/mL (S. aureus): 12.3 ± 0.41 mm
zone of inhibition at 100 µg/mL (S. aureus): 15.6 ± 0.65 mm
zone of inhibition at 50 µg/mL (Aspergillus fumigatus): 12.2 ± 0.51 mm
zone of inhibition at 100 µg/mL (Aspergillus fumigatus): 18.2 ± 0.24 mm
zone of inhibition at 50 µg/mL (Aspergillus niger): 12.6 ± 0.31 mm
zone of inhibition at 100 µg/mL (Aspergillus niger): 17.62 ± 0.12 mm
zone of inhibition at 50 µg/mL (Candida tropicalis): 12.3 ± 0.51 mm
zone of inhibition at 100 µg/mL (Candida tropicalis): 17.2 ± 0.51 mm
zone of inhibition at 50 µg/mL (Trichophyton rubrum): 13.56 ± 0.05 mm
zone of inhibition at 100 µg/mL (Trichophyton rubrum): 19.1 ± 0.21 mm
IC50 ([1]; Homo sapiens, MCF7, 48 h): 11.3 ± 0.21 µM
IC50 ([2]; Homo sapiens, A549, 48 h): 11.6 ± 0.15 µM

COc1ccc2cc(/C(C)=N\NC(=S)Nc3ccccc3)c(=O)oc2c1 [H2L^4, ((1E)-1-(1-(7-methoxy-2-oxo-2H-chromen-3-yl)ethylidene) 4(N)-phenylthiosemicarbazone)]
Kd (BSA): 900 µM
Kd (HSA; HSA, Scatchard equation): 858 µM
zone of inhibition at 50 µg/mL (S. aureus): 15.4 ± 0.52 mm
zone of inhibition at 100 µg/mL (S. aureus): 18.5 ± 0.73 mm
zone of inhibition at 50 µg/mL (Aspergillus fumigatus): 11.3 ± 0.33 mm
zone of inhibition at 100 µg/mL (Aspergillus fumigatus): 18.22 ± 0.14 mm
zone of inhibition at 50 µg/mL (Aspergillus niger): 12.5 ± 0.83 mm
zone of inhibition at 100 µg/mL (Aspergillus niger): 17.3 ± 0.21 mm
zone of inhibition at 50 µg/mL (Candida tropicalis): 12.2 ± 0.23 mm
zone of inhibition at 100 µg/mL (Candida tropicalis): 19.2 ± 0.32 mm
zone of inhibition at 50 µg/mL (Trichophyton rubrum): 12.4 ± 0.32 mm
zone of inhibition at 100 µg/mL (Trichophyton rubrum): 16.4 ± 0.66 mm
IC50 ([1]; Homo sapiens, MCF7, 48 h): 13.1 ± 0.25 µM
IC50 ([2]; Homo sapiens, A549, 48 h): 13.8 ± 0.18 µM
